Assay results reported in patent US7829499B2, “Granular pesticide preparation” (Kumiai Chemical Industry Co., Ltd., priority 2003, dated 2010).

Test: pKa of the pesticidal active ingredient
Assay type: physicochemical
Text: When the acidic pesticidal active ingredient having the above specified pKa is used, the pKa of the ingredient is, for example, measured by a method described in “Jikken Kagaku Kouza”, Vol. 5 (thermal measurement and equilibrium), p. 469-p. 474, Maruzen Co., Ltd. published Jan. 20, 1958 and elsewhere.

COCc1cccc(C(O)c2nc(OC)cc(OC)n2)c1NS(=O)(=O)C(F)F (centres unmarked) [compound A, 2-[(4,6-dimethoxypyrimidin-2-yl)hydroxymethyl]-6-methoxymethyl-N-difluoromethanesulfonyl anilide]
pKa: 5.75

CCc1cccc(C(O)c2nc(OC)cc(OC)n2)c1NS(=O)(=O)C(F)F (centres unmarked) [compound B, 2-[(4,6-dimethoxypyrimidin-2-yl)hydroxymethyl]-6-ethyl-N-difluoromethanesulfonyl anilide]
pKa: 6.17
